Legend:
[1] = biological target: T1, D(3) dopamine receptor (Homo sapiens, UniProt P35462); assay: Intrinsic activity against dopamine D3 receptor assessed as [3H]thymidine uptake in CHO cells by mitogenesis assay
[2] = biological target: T2, D(2) dopamine receptor (Homo sapiens, UniProt P14416); assay: Displacement of [3H]spiperone from human cloned dopamine D2(long) receptor expressed in CHO cells; type: cell-based
[3] = biological target: T2, D(2) dopamine receptor; assay: Displacement of [3H]spiperone from human cloned dopamine D2(short) receptor expressed in CHO cells; type: cell-based
[4] = biological target: T2, D(2) dopamine receptor; assay: Intrinsic activity against dopamine D2(short) receptor assessed as [3H]thymidine uptake in CHO cells by mitogenesis assay; type: functional, cell-based
[5] = biological target: T2, D(2) dopamine receptor; assay: Intrinsic activity against dopamine D2(long) receptor assessed as [3H]thymidine uptake in CHO cells relative to quinpirole by mitogenesis assay; type: functional, cell-based
[6] = biological target: T2, D(2) dopamine receptor; assay: Intrinsic activity against dopamine D2(short) receptor assessed as [3H]thymidine uptake in CHO cells relative to quinpirole by mitogenesis assay; type: functional, cell-based
[7] = biological target: D(1A) dopamine receptor (Sus scrofa, UniProt P50130); assay: Displacement of [3H]SCH-23390 from dopamine D1 receptor in porcine striatal membrane; type: cell membranes, Striatum
[8] = biological target: T3, D(4) dopamine receptor (Homo sapiens, UniProt P21917); assay: Displacement of [3H]spiperone from human cloned dopamine D4 receptor expressed in CHO cells; type: cell-based
T3 sequence (P21917 whole entry): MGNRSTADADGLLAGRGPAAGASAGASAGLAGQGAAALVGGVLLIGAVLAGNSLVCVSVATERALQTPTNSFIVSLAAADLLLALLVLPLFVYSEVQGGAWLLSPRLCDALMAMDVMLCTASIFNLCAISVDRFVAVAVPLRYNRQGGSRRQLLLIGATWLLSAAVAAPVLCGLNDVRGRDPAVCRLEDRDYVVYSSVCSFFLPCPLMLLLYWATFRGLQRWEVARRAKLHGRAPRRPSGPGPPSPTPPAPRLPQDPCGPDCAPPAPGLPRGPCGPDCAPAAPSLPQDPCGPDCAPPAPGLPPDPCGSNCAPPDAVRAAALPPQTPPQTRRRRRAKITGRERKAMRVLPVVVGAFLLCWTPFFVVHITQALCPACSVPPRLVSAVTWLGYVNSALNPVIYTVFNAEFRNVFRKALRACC

[9] = biological target: T2, D(2) dopamine receptor; assay: Intrinsic activity against dopamine D2(long) receptor assessed as [3H]thymidine uptake in CHO cells by mitogenesis assay; type: functional, cell-based
[10] = biological target: 5-hydroxytryptamine receptor 2A (Sus scrofa, UniProt P50129); assay: Displacement of […] from 5HT2 receptor in porcine striatal membrane; type: cell membranes, Striatum
[11] = biological target: T1, D(3) dopamine receptor; assay: Displacement of [3H]spiperone from human cloned dopamine D3 receptor expressed in CHO cells; type: cell-based
[12] = biological target: T3, D(4) dopamine receptor; assay: Intrinsic activity against dopamine D4 receptor assessed as [3H]thymidine uptake in CHO cells by mitogenesis assay; type: functional, cell-based
[13] = biological target: T3, D(4) dopamine receptor; assay: Intrinsic activity against dopamine D4 receptor expressed in CHO cells by GTPgammaS assay; type: functional, cell-based
[14] = biological target: T2, D(2) dopamine receptor; assay: Intrinsic activity against dopamine D2(short) receptor expressed in CHO cells by GTPgammaS assay; type: functional, cell-based
[15] = biological target: T2, D(2) dopamine receptor; assay: Intrinsic activity against dopamine D2(short) receptor expressed in CHO cells relative to quinpirole by GTPgammaS assay; type: functional, cell-based
[16] = biological target: T2, D(2) dopamine receptor; assay: Intrinsic activity against dopamine D2(long) receptor expressed in CHO cells relative to quinpirole by GTPgammaS assay; type: functional, cell-based
[17] = biological target: T2, D(2) dopamine receptor; assay: Intrinsic activity against dopamine D2(long) receptor expressed in CHO cells by GTPgammaS assay; type: functional, cell-based

T2 sequence (P14416 whole entry): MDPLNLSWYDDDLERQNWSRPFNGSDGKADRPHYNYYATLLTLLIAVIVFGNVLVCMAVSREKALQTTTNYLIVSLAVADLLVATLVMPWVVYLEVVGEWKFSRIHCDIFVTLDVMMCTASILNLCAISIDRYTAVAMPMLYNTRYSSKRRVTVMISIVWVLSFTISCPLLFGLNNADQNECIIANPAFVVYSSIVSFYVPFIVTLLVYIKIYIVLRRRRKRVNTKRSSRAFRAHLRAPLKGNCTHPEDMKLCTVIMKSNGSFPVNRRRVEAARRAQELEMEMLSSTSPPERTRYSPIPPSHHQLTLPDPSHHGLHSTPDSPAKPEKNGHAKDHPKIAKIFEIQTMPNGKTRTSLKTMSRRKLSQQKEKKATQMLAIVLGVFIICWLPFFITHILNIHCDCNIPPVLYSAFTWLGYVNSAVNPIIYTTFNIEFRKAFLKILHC
D(1A) dopamine receptor, sequence (P50130 whole entry): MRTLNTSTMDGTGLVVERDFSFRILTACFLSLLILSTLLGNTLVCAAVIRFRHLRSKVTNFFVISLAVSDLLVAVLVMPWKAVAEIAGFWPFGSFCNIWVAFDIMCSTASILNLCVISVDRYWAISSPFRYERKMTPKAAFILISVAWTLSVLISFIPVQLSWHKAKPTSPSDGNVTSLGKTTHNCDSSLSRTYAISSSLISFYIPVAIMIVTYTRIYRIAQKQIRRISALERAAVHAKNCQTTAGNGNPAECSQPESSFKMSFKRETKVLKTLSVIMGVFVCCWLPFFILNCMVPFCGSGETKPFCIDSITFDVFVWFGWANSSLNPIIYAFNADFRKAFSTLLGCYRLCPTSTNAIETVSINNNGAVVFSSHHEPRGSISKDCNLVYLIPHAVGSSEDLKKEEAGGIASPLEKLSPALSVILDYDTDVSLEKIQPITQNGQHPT
T1 sequence (P35462 whole entry): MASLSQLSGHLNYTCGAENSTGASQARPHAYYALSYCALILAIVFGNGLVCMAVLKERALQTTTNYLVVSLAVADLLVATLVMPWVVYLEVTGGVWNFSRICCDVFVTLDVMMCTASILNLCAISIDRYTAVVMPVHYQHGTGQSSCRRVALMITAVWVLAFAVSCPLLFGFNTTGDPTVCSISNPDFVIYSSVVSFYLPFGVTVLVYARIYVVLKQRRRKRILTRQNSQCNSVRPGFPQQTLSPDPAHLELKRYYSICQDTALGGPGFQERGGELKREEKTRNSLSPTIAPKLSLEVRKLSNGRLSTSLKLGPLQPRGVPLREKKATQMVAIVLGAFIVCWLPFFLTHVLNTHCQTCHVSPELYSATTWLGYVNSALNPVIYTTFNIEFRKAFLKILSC
5-hydroxytryptamine receptor 2A, sequence (P50129 whole entry): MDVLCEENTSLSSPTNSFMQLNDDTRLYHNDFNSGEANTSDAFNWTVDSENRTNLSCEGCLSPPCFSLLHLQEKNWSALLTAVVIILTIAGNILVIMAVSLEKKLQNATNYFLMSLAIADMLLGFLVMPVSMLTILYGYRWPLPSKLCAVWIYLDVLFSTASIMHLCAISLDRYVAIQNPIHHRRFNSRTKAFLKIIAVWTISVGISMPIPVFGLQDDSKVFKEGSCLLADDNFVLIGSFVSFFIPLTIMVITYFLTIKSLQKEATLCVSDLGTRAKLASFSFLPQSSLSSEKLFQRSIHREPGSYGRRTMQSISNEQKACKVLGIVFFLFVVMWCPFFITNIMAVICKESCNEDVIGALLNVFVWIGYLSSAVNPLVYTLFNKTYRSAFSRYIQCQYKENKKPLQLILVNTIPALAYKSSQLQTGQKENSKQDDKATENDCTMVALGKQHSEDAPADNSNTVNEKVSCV

Structure (SMILES)	Ki [2]	Ki ([3]; read-out: Ki)	Ki [7]	Ki [8]	Ki [11]	other results
COc1ccccc1N1CCN(Cc2cnn(-c3ccccc3)c2)CC1	11 nM	8 nM	1000 nM	0.28 nM	35 nM	EC50 [1]: 0.21 nM; EC50 [4]: 0.22 nM; Efficacy [5]: 56%; Efficacy [6]: 66%; EC50 [9]: 0.28 nM; Ki [10]: 1300 nM; EC50 [12]: 0.6 nM
c1ccc(N2CCN(Cc3ccc(-n4cccn4)cc3)CC2)cc1	3000 nM	2400 nM	7600 nM	20 nM	2100 nM	
c1ccc(N2CCN(Cc3cnn(-c4ccccn4)c3)CC2)cc1	340 nM	190 nM	1600 nM	2.6 nM	160 nM	
C1=C(c2ccccc2)CCN(Cc2cn(-c3ccccc3)nn2)C1	220 nM	110 nM	10000 nM	3.2 nM	94 nM	
C1=C(c2ccccc2)CCN(Cc2cnn(-c3ccccc3)c2)C1	38 nM	28 nM	3000 nM	0.59 nM	33 nM	EC50 [13]: 9.5 nM; EC50 [14]: 32 nM; Efficacy [15]: 17%; EC50 [1]: 3.3 nM; Efficacy [16]: 45%; EC50 [17]: 25 nM; EC50 [4]: 1.7 nM; Efficacy [5]: 54%; Efficacy [6]: 30%; EC50 [9]: 3 nM; Ki [10]: 2100 nM; EC50 [12]: 5.6 nM
Cc1c(CN2CCN(c3ccccc3)CC2)cnn1-c1ccccc1	630 nM	250 nM	560 nM	5.3 nM	320 nM	
c1ccc(N2CCN(Cc3cnn(-c4ccccc4)c3)CC2)cc1	140 nM	75 nM	1600 nM	1 nM	140 nM	
Fc1ccc(N2CCN(Cc3cnn(-c4ccccc4)c3)CC2)cc1	450 nM	400 nM	1900 nM	2.9 nM	540 nM	
c1ccc(-n2cc(CN3CCN(c4ncccn4)CC3)cn2)cc1	6000 nM	14000 nM	7100 nM	310 nM	2900 nM	
c1ccc(-c2c[nH]c(CN3CCN(c4ccccc4)CC3)c2)cc1			2100 nM		514 nM	
Clc1ccc(N2CCN(Cc3cnn(-c4ccccc4)c3)CC2)cc1	2900 nM		7500 nM	2.9 nM	1900 nM	Ki [3]: 1900 nM
Fc1ccccc1N1CCN(Cc2cnn(-c3ccccc3)c2)CC1	63 nM	37 nM	680 nM	0.7 nM	67 nM	
c1ccc(N2CCN(Cc3cn(-c4ccccc4)nn3)CC2)cc1	1500 nM	860 nM	21000 nM	9.9 nM	1200 nM	
Cc1nn(-c2ccccc2)cc1CN1CCN(c2ccccc2)CC1	71 nM	43 nM	3900 nM	1 nM	360 nM	
COc1ccccc1N1CCN(Cc2cnn(-c3ccccn3)c2)CC1	40 nM	31 nM	1900 nM	0.44 nM	72 nM	
COc1ccccc1N1CCN(Cc2cn(-c3ccccc3)nn2)CC1	120 nM	65 nM	27000 nM	2.7 nM	340 nM	

From ChEMBL document CHEMBL1147793, “Synthesis and biological investigations of dopaminergic partial agonists preferentially recognizing the D4 receptor subtype” (Bioorg Med Chem Lett, 2006)
